Activity calls are given as the source filed them.
Tests used:
[1] = target: T1, Luciferin 4-monooxygenase (Photinus pyralis, UniProt P08659); assay: inhibition of purified Photinus pyralis luciferase – biochemical, luminescence, dose response (AID 1891)
[2] = Luminescence Cell-Based Dose Confirmation HTS to Identify Inhibitors of Platelet Dense Granule Release. [Related pubchem assays: 1663 (Primary HTS), 1678 (Summary of Project)]; assay type: functional
[3] = target: Kallikrein-7 (Homo sapiens, UniProt P49862); assay: Fluorescence Intensity-based biochemical primary high throughput dose response assay to identify activators of kallikrein-7 (K7) zymogen.
[4] = viability of uninfected HEp-2 cells – cell-based, HTS, cytotoxicity control for RSV inhibitor project, dose response (AID 2410); assay type: functional; conditions: human respiratory syncytial virus
[5] = system: Streptococcus sp. 'group A'; assay: Streptococcus pyogenes SK(-)GAS viability under kanamycin – luminescence, BacTiterGlo, confirmation, counter-screen for streptokinase expression inhibitor project, dose response (AID 1900); assay type: functional, organism-based
[6] = target: T2, Heat shock factor protein 1 (Mus musculus, UniProt P38532); assay: decrease of HSF1-responsive luciferase luminescence – cell-based, NIH3T3, dose retest, confirmation (AID 2382); assay type: functional;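 further: NIH3T3 fibroblasts with HSF1-driven luciferase reporter stressed by proteasome inhibitor MG132; luminescence from HSF1-driven luciferase expression after 8 hours of MG132 stress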
T2 sequence (P38532 whole entry): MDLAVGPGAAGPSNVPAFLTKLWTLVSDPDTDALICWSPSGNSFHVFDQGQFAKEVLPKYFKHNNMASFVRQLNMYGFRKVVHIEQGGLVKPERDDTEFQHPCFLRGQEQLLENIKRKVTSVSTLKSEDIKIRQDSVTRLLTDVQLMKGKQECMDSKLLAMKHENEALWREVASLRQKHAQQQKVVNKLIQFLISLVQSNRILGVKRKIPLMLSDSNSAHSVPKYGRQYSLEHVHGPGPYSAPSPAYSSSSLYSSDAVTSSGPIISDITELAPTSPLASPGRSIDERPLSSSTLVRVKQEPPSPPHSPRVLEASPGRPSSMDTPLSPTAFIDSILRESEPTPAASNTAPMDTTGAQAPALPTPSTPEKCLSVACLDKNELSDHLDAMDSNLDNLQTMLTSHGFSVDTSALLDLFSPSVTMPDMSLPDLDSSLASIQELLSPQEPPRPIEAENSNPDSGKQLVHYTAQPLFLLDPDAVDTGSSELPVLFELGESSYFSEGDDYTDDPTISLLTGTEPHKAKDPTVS

[7] = target: T3, Streptokinase A (Streptococcus pyogenes serotype M1, UniProt P10520); assay: viability-normalized secreted streptokinase activity reduction – plasminogen activation absorbance, OD405, dose response (AID 1914); assay type: functional, Streptococcus pyogenes M1 GAS;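 further: secreted streptokinase activity via plasminogen activation per viability signal from cell pellet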
T3 sequence (P10520 whole entry): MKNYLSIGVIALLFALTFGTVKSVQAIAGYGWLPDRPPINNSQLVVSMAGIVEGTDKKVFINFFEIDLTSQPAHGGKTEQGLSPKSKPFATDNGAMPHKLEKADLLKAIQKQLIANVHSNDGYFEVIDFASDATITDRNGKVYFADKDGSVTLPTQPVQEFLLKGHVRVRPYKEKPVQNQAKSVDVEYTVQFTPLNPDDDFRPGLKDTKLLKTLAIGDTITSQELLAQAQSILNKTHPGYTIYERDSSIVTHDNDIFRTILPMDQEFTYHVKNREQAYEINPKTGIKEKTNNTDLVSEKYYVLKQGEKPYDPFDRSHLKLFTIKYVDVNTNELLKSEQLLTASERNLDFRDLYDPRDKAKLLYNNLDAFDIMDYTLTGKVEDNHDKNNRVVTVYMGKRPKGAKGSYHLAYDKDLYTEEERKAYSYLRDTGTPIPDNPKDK

[8] = system: Streptococcus; assay: GAS UMAA2166 growth inhibition – luminescence, BacTiterGlo, counter-screen for streptokinase expression inhibitor project, dose response (AID 1915); assay type: functional, organism-based;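 further: potency for reduction of bacterial viability or growth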
[9] = Luminescence Cell-Based Dose Retest to Confirm Inhibitors of Cancer Stem Cells. [Related pubchem assays (depositor defined):AID2717, AID2721]; assay type: functional; conditions: Homo sapiens
[10] = target: Major prion protein (Homo sapiens, UniProt P04156); assay type: functional, cell-based
[11] = cells
[12] = system: HEK293; assay: EBV LMP1 TES2 canonical NF-kB signalling blockers – cell-based, HEK293, luciferase, cherry-pick, dose response (AID 588343); assay type: functional; conditions: Homo sapiens
[13] = target: Oxysterols receptor LXR-beta (Homo sapiens, UniProt P55055); assay type: functional, cell-based;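 further: Cell-based luminescence dose-response assay of agonist activity at LXR, run as a confirmatory counterscreen to a daf-12 agonist screen; HEK293 cells with Gal4-LXR fusion and GAL4-driven luciferase reporter; agonist potency from rising luciferase signal of a Gal4-LXR reporter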
[14] = cells; remark: listed apart in the source
[15] = target: fMet-Leu-Phe receptor (Homo sapiens, UniProt P21462); assay: formyl peptide receptor binders – dose response (AID 519); assay type: functional
[16] = rise of 2N DNA cells, HeLa – IC50, dose response (AID 1117349); assay type: functional, cell-based
[17] = rise of 4N DNA cells, HeLa – IC50, dose response (AID 1117351); assay type: functional, cell-based
[18] = target: T1, Luciferin 4-monooxygenase; assay: Counter Screen for Luciferase-based Assay Positives. [Related pubchem assays: 620, 618, 411 ]
[19] = system: HT-1080; assay: HT1080 cell viability loss – fluorescence readout (AID 620); assay type: functional, cell-based; conditions: Homo sapiens
[20] = HGIII-sPLA2 enzyme inhibition potency – biochemical, QFRET, IC50, dose response (AID 743457);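 further: green fluorescence rise as the enzyme cleaves BODIPY PC-A2 in liposomes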
[21] = reduction of Shn3 3'UTR-driven luciferase in osteoblasts – cell-based, Clone20 osteoblasts, firefly luciferase, cherry-picked, dose response (AID 624132); assay type: functional;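 further: firefly luciferase luminescence from reporter carrying the Shn3 3'UTR in osteoblasts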
[22] = loss of viability in HepG2 cells – cell-based, CellTiter-Glo, cherry-picked, cytotoxicity control for Shn3 inhibitor project, dose response (AID 624134); assay type: functional
[23] = Shn3 3'UTR reporter signal decrease – cell-based, Clone20 osteoblasts, firefly luciferase, cherry-pick, set 2, Schnurri-3 inhibitor project, dose response (AID 720490); assay type: functional;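 further: actives lower the luminescence signal as inhibitors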
[24] = target: Heat shock protein HSP 90-alpha (Homo sapiens, UniProt P07900); assay type: functional, organism-based
[25] = system: INS1; assay: INS-1E survival protection against cytokine death – cell-based, luminescence, retest, dose response (AID 449756); assay type: functional; conditions: Rattus norvegicus;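 further: cell death triggered by IL-1 beta plus TNF-alpha plus IFN-gamma mixture; protective hits raise ATP signal compared with cytokine alone wells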
[26] = target: NAD-dependent protein deacylase sirtuin-5, mitochondrial (Homo sapiens, UniProt Q9NXA8); assay: sirtuin-5 deacylation blockers, concentration series – biochemical, fluorescence imaging, cherry-pick, set 5, dose response (AID 720591);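 further: desuccinylation of succinyl peptide AMC substrate read as fluorescence after trypsin release; potency of inhibitors that lower fluorescence and may act on trypsin instead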
[27] = target: Paired box protein Pax-8 (Homo sapiens, UniProt Q06710); assay: PAX8 transcriptional activity inhibition in RMG-I – RMG-I cells, luciferase, cherry-pick, dose response (AID 687027); assay type: functional, cell-based;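 further: luciferase reporter driven by Pax8 target thyroperoxidase promoter measured by SteadyGlo luminescence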
[28] = reduced cellular PGC1a acetyl-lysine signal – cell-based, cherry-picked samples, dose response (AID 720514); assay type: functional;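 further: potency may reflect raised or lowered acetylation signal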
[29] = CMV-driven luciferase expression suppression in HEK293 – cell-based, luminescence, dry powder, counter-screen for Pax8 inhibitor project, dose response (AID 743020); assay type: functional
[30] = OVCAR8 cell viability loss – plate reader, dry powder samples, PAX8 project, dose response (AID 743197); assay type: functional, cell-based; conditions: OVCAR-8

SMILES: CN1CCSc2ccc(C(=O)NCc3ccccc3F)cc21
- EC50 [1]: > 112 µM (not active)
- EC50 [2]: > 112 µM (not active)
- EC50 [3]: > 23.2 µM (inactive)

SMILES: OC(COc1ccc2ccccc2c1Br)Cn1cnc(-c2ccccc2)c1 (stereo not drawn)
- CC50 [4]: 9.42 µM (active)
- EC50 [5]: 6.29 µM (active)
- EC50 [6]: > 195 µM (not active)
- EC50 [7]: 9.22 µM (active)
- EC50 [8]: 21.7 µM (active)
- AC50 [9]: 5.02 µM (active)
- IC50 [10]: 4.17 µM (active)
- IC50 [11]: > 138 µM (inactive)

SMILES: c1ccc(-c2nnc(-c3ccccn3)s2)nc1
- AC50 [12]: 4.63 µM (active)
- EC50 [13]: > 67.5 µM (inactive)
- EC50 [14]: > 67.5 µM (inactive)

SMILES: COc1ccccc1NC(=O)CSc1nnc(Cn2nnc(-c3ccccc3)n2)n1-c1ccccc1
- Ki [15]: > 66.7 µM (inactive)

SMILES: CCCN(CCC)C(=O)C(CCC(=O)OCCCN1CCN(CCOC(=O)Cc2c(C)n(C(=O)c3ccc(Cl)cc3)c3ccc(OC)cc23)CC1)NC(=O)c1ccccc1 (stereo not drawn) [PROGLUMETACIN]
- IC50 [16]: > 10 µM (inactive)
- IC50 [17]: > 10 µM (inactive)

SMILES: Cc1ccc2nc(-c3cc(N)cc(N)c3)oc2c1
- EC50 [18]: 1.01 µM (active)
- EC50 [19]: > 50 µM (not active)
- IC50 [20]: > 122 µM (inactive)

SMILES: O=C(Nc1nc(-c2ccccc2)cs1)C1CCCCN1S(=O)(=O)c1ccccc1 (stereo not drawn)
- AC50 [21]: 5.14 µM (active)
- AC50 [22]: 58 µM (active)
- AC50 [23]: 5.89 µM (active)

SMILES: COC(=O)C1=CN(CC2CCCO2)C=C(C(=O)OC)C1c1ccsc1 (stereo not drawn)
- EC50 [3]: > 69.5 µM (inactive)

SMILES: O=C(/C=C/c1ccccc1)NC(=S)NNC(=O)c1cnccn1
- AC50 [9]: 8.78 µM (active)
- AC50 [24]: 2.87 µM (active)
- AC50 [25]: 1.39 µM (active)
- IC50 [20]: 66.8 µM (inactive)

SMILES: O=C(NCC1(N2CCOCC2)CCCCC1)c1cccc(S(=O)(=O)Nc2ccc(F)cc2)c1
- AC50 [26]: > 30 µM (inactive)

SMILES: C[C@@H]1CCCCO[C@H](CN(C)Cc2ccc3c(c2)OCO3)[C@@H](C)CN([C@@H](C)CO)C(=O)c2cc(NC(=O)Nc3ccc(C(F)(F)F)cc3)ccc2O1
- AC50 [27]: 17.3 µM (active)
- AC50 [28]: 11.3 µM (active)
- AC50 [29]: 41.9 µM (active)
- AC50 [30]: 19.6 µM (active)

— ChEMBL document CHEMBL1201862, “PubChem BioAssay data set” (2004)
